Among the data in patent US20230148214A1, “INDAZOLES AND AZAINDAZOLES AS LRRK2 INHIBITORS” (ESCAPE Bio, Inc., priority 2020, published 2023) are IC50 values, retold here.

For assay [1], the target named is T1, LRRK2 WT (Homo sapiens, UniProt Q5S007).
T1 construct: purchased Life Technologies PR8604B
Description: LRRK2 Kinase Activity Assay (LanthaScreen TR-FRET), wild type. It is filed as biochemical. The following applies: recombinant wild type LRRK2, 25 μM ATP, 400 nM LRRKtide, 60 min; class symbols. The procedure:
(§1) LRRK2 kinase activity was measured using a LanthaScreen™ Kinase Activity Assay from ThermoFisher Scientific. Recombinant wild type or G2019S-LRRK2 protein (Life Technologies, PR8604B or PV4881, respectively), was incubated with a fluorescein-labeled peptide substrate called LRRKtide that is based upon ezrin/radixin/moesin (ERM) (Life Technologies, PV4901) in the presence of ATP and serially diluted compound. […] Compound-dependent inhibition of the TR-FRET signal was used to generate a concentration-response curve for IC50 determination.
(§2) After 60 min incubation at room temperature, the reaction was stopped by addition of 10 μL of 2×stop solution containing a final concentration of 2 nM anti-pERM antibody and 10 mM EDTA.
Background: In TR-FRET formats the signal depends on donor and acceptor labels being close together.

For assay [2], the target named is T2, LRRK2 G2019S (Homo sapiens, UniProt Q5S007, G2019S).
T2 construct: purchased Life Technologies PV4881
T2 sequence (Q5S007 whole entry G2019S): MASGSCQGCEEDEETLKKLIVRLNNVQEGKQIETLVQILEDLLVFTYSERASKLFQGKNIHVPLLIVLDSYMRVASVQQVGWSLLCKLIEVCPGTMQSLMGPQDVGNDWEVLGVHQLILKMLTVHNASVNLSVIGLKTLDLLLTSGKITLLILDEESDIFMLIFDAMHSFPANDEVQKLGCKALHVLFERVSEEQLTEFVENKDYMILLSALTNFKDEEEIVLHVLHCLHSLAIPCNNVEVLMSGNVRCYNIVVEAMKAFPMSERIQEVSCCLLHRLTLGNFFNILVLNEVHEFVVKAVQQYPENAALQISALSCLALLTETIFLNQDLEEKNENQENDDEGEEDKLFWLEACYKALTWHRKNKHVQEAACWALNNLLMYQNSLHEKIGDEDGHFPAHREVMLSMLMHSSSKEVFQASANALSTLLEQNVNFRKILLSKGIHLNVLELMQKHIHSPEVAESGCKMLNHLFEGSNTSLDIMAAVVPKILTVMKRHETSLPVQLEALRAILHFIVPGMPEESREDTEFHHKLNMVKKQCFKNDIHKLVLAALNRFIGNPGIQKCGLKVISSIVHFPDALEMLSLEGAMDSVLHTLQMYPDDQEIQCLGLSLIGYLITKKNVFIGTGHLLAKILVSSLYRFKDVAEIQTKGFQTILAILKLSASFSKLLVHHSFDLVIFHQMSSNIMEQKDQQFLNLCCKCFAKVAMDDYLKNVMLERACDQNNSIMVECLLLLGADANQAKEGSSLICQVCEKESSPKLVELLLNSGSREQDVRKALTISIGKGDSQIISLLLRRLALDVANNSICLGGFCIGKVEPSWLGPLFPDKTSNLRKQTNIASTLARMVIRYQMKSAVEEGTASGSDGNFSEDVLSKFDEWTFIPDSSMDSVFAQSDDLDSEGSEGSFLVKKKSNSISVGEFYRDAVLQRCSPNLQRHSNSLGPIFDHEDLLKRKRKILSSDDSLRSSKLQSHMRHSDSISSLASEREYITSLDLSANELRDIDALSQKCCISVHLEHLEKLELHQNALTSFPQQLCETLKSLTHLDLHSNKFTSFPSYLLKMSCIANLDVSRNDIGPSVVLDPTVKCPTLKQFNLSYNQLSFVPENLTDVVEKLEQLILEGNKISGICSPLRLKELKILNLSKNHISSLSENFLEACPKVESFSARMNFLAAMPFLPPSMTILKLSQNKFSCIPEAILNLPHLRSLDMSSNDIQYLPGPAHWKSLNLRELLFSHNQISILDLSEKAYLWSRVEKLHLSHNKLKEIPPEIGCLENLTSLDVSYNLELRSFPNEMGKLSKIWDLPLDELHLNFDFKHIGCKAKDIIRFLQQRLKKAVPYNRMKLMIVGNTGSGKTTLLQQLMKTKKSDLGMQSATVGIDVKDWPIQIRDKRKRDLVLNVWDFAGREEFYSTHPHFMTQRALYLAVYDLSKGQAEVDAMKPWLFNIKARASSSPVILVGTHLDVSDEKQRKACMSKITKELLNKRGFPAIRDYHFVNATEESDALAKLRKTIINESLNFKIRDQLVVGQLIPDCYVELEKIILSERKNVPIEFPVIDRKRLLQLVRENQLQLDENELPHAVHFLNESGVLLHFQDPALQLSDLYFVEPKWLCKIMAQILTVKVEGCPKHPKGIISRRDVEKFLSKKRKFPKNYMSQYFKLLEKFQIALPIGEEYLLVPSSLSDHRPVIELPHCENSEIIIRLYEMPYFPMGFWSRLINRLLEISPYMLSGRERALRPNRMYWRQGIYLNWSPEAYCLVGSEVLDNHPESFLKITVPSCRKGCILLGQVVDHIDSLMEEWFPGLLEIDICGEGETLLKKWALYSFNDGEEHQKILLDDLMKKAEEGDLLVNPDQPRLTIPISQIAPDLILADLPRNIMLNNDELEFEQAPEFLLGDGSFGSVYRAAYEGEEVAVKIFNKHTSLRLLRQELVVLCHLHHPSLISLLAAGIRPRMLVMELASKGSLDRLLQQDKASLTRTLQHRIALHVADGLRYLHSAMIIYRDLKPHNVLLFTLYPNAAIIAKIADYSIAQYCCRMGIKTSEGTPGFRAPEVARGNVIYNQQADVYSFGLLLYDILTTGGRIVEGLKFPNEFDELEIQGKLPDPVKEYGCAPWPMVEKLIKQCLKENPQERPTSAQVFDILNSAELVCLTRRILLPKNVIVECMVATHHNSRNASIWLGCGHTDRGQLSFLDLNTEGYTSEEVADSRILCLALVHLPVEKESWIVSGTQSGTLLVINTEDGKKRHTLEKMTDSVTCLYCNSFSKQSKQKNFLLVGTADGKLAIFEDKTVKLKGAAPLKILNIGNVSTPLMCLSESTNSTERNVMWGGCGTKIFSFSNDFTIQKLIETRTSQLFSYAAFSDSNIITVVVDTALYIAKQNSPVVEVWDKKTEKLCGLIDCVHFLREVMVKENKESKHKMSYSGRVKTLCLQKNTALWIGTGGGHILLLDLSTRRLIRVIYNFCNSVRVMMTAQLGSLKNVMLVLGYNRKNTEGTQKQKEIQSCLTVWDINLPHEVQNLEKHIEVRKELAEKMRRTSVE
As to the kind of experiment: LRRK2 Kinase Activity Assay (LanthaScreen TR-FRET), G2019S. It is filed as biochemical. The following applies: recombinant G2019S-LRRK2, 25 μM ATP, 400 nM LRRKtide, 60 min; class symbols. How it is done: as §1, §2

Structures are written as SMILES.

T1 sequence (Q5S007 whole entry): as the sequence (Q5S007 whole entry G2019S) above, with S2019G counted along it

Usually IC50 stands for the concentration that inhibits the measured activity by half. `C[C@H]1CCc2cc(C#N)ccc2[C@H]1Oc1ccc2[nH]nc(-c3cnco3)c2c1` (single isomer, unassigned) [175, enantiomer 1, cis-6-Methyl-5-[[3-(1,3-oxazol-5-yl)-1H-indazol-5-yl]oxy]-5,6,7,8-tetrahydronaphthalene-2-carbonitrile]: the half-maximal inhibitory concentration (IC50) in assay [1] is 100 to 1000 nM; in assay [2], less than 100 nM.

As to `C[C@H]1CCc2cc(C#N)ccc2[C@H]1Oc1ccc2[nH]nc(-c3cnco3)c2c1` (single isomer, unassigned) [175, enantiomer 2, cis-6-Methyl-5-[[3-(1,3-oxazol-5-yl)-1H-indazol-5-yl]oxy]-5,6,7,8-tetrahydronaphthalene-2-carbonitrile], the IC50 is 100 to 1000 nM in assay [1] and less than 100 nM in assay [2]. Taken in the same sequence, the figures for `C[C@@H]1CCc2cc(C#N)ccc2[C@H]1Oc1ccc2[nH]nc(-c3cnco3)c2c1` (single isomer, unassigned) [176, enantiomer 1, trans-6-Methyl-5-[[3-(1,3-oxazol-5-yl)-1H-indazol-5-yl]oxy]-5,6,7,8-tetrahydronaphthalene-2-carbonitrile] were 100 to 1000 nM and less than 100 nM. Taken in the same sequence, the figures for `C[C@@H]1CCc2cc(C#N)ccc2[C@H]1Oc1ccc2[nH]nc(-c3cnco3)c2c1` (single isomer, unassigned) [176, enantiomer 2, trans-6-Methyl-5-[[3-(1,3-oxazol-5-yl)-1H-indazol-5-yl]oxy]-5,6,7,8-tetrahydronaphthalene-2-carbonitrile] were less than 100 nM and less than 100 nM. Taken in the same sequence, the figures for `N#Cc1cc2c(nc1Cl)[C@@H](Oc1ccc3[nH]nc(-c4cnco4)c3c1)CCC2` (single isomer, unassigned) [177, enantiomer 1, 2-Chloro-8-((3-(oxazol-5-yl)-1H-indazol-5-yl)oxy)-5,6,7,8-tetrahydroquinoline-3-carbonitrile] were less than 100 nM and less than 100 nM. For the compound `N#Cc1cc2c(nc1Cl)[C@@H](Oc1ccc3[nH]nc(-c4cnoc4)c3c1)CCC2` (single isomer, unassigned) [178, enantiomer 1, 2-Chloro-8-[[3-(1,2-oxazol-4-yl)-1H-indazol-5-yl]oxy]-5,6,7,8-tetrahydroquinoline-3-carbonitrile], the IC50 in assay [1] and in assay [2] was less than 100 nM throughout.

Consider `COc1nc2c(cc1C#N)CCC[C@@H]2Oc1ccc2[nH]nc(-c3cnco3)c2c1` (single isomer, unassigned) [179, enantiomer 1, 2-Methoxy-8-[[3-(1,3-oxazol-5-yl)-1H-indazol-5-yl]oxy]-5,6,7,8-tetrahydroquinoline-3-carbonitrile], for which the IC50 in assay [1] and in assay [2] was less than 100 nM in each case. With `COc1nc2c(cc1C#N)CCC[C@@H]2Oc1ccc2[nH]nc(-c3cnco3)c2c1` (single isomer, unassigned) [179, enantiomer 2, 2-Methoxy-8-[[3-(1,3-oxazol-5-yl)-1H-indazol-5-yl]oxy]-5,6,7,8-tetrahydroquinoline-3-carbonitrile], the IC50 in assay [1] and in assay [2] was 100 to 1000 nM in each case. For the compound `N#Cc1cc2c(cc1F)[C@@H](Oc1ccc3[nH]nc(-c4cnco4)c3c1)CCC2` (single isomer, unassigned) [180, enantiomer 1, 3-Fluoro-5-[[3-(1,3-oxazol-5-yl)-1H-indazol-5-yl]oxy]-5,6,7,8-tetrahydronaphthalene-2-carbonitrile], the IC50 in assay [1] and in assay [2] was less than 100 nM in each case. For `N#Cc1cc2c(nc1Cl)[C@@H](Oc1ccc3[nH]nc(C4CC4)c3c1)CCC2` (single isomer, unassigned) [181, enantiomer 1, 2-Chloro-8-[(3-cyclopropyl-1H-indazol-5-yl)oxy]-5,6,7,8-tetrahydroquinoline-3-carbonitrile], the IC50 in assay [1] and in assay [2] was less than 100 nM each time.

For `N#Cc1cc2c(nc1Cl)[C@@H](Oc1ccc3[nH]nc(C4CC4)c3c1)CCC2` (single isomer, unassigned) [181, enantiomer 2, 2-Chloro-8-[(3-cyclopropyl-1H-indazol-5-yl)oxy]-5,6,7,8-tetrahydroquinoline-3-carbonitrile], the IC50 in assay [1] was 100 to 1000 nM; in assay [2], less than 100 nM.

As for `N#Cc1cnc2c(n1)CC[C@@H]2Oc1ccc2[nH]nc(-c3cnco3)c2c1` (single isomer, unassigned) [182, enantiomer 1, 5-((3-(Oxazol-5-yl)-1H-indazol-5-yl)oxy)-6,7-dihydro-5H-cyclopenta[b]pyrazine-2-carbonitrile], the IC50 in assay [1] and in assay [2] was less than 100 nM each time. As to `Cc1c(C#N)c(Cl)nc2c1CCC[C@@H]2Nc1ccc2[nH]nc(C3CC3)c2c1` (single isomer, unassigned) [183, enantiomer 1, 2-Chloro-8-[(3-cyclopropyl-1H-indazol-5-yl)amino]-4-methyl-5,6,7,8-tetrahydroquinoline-3-carbonitrile], the IC50 in assay [1] was in the range of 1000 to 10000 nM; in assay [2], 100 to 1000 nM. For `Cc1c(C#N)c(Cl)nc2c1CCC[C@@H]2Nc1ccc2[nH]nc(C3CC3)c2c1` (single isomer, unassigned) [183, enantiomer 2, 2-Chloro-8-[(3-cyclopropyl-1H-indazol-5-yl)amino]-4-methyl-5,6,7,8-tetrahydroquinoline-3-carbonitrile], in that order: less than 100 nM and less than 100 nM.

With `N#Cc1ccc2c(c1)CC[C@@H]2Oc1ccc2[nH]nc(C3CC3)c2c1` (single isomer, unassigned) [Example 124, enantiomer 2, 1-((3-Cyclopropyl-1H-indazol-5-yl)oxy)-2,3-dihydro-1H-indene-5-carbonitrile], the IC50 in assay [2] lay within 100 to 1000 nM. Take `N#Cc1cnc2c(c1)CCC[C@@H]2Oc1ccc2[nH]nc(C3CC3)c2c1` (single isomer, unassigned) [Example 136, enantiomer 2, 8-((3-Cyclopropyl-1H-indazol-5-yl)oxy)-5,6,7,8-tetrahydroquinoline-3-carbonitrile]: the IC50 in assay [2] fell in the range of 100 to 1000 nM. As to `N#Cc1ccc2c(c1)CCCC2Nc1ccc2[nH]nc(C(F)(F)F)c2c1` (single isomer, unassigned) [Example 153, enantiomer 2, 5-((3-(Trifluoromethyl)-1H-indazol-5-yl)amino)-5,6,7,8-tetrahydronaphthalene-2-carbonitrile], the IC50 in assay [2] lay in the range of 1000 to 10000 nM.

With `Cc1cc(-c2n[nH]c3ccc(N[C@H]4CCCc5cc(C#N)cnc54)cc23)sn1` (single isomer, unassigned) [Example 158, enantiomer 2, 8-((3-(3-Methylisothiazol-5-yl)-1H-indazol-5-yl)amino)-5,6,7,8-tetrahydroquinoline-3-carbonitrile], in assay [1], the IC50 is less than 100 nM.

As for `Cc1ncc(-c2n[nH]c3ccc(N[C@H]4CCCc5cc(C#N)c(C)nc54)cc23)o1` (single isomer, unassigned) [Example 159, enantiomer 2, 2-Methyl-8-((3-(2-methyloxazol-5-yl)-1H-indazol-5-yl)amino)-5,6,7,8-tetrahydroquinoline-3-carbonitrile], in assay [1], the concentration for half-maximal inhibition (IC50) was less than 100 nM. The same measure, in the same setting: in the case of `Cc1ncc(-c2n[nH]c3ccc(O[C@H]4CCc5cc(C#N)c(F)cc54)cc23)o1` (single isomer, unassigned) [Example 160, enantiomer 2, 6-Fluoro-1-((3-(2-methyloxazol-5-yl)-1H-indazol-5-yl)oxy)-2,3-dihydro-1H-indene-5-carbonitrile] it was less than 100 nM; in that of `N#Cc1cnc2c(n1)CCC[C@@H]2Oc1ccc2[nH]nc(-c3cnco3)c2c1` (single isomer, unassigned) [Example 163, enantiomer 2, 5-[[3-(1,3-Oxazol-5-yl)-1H-indazol-5-yl]oxy]-5,6,7,8-tetrahydroquinoxaline-2-carbonitrile], less than 100 nM. Turning to `Cc1nc2c(c(C)c1C#N)CCC[C@@H]2Nc1ccc2[nH]nc(-c3cnco3)c2c1` (single isomer, unassigned) [Example 164, enantiomer 2, 2,4-Dimethyl-8-[[3-(1,3-oxazol-5-yl)-1H-indazol-5-yl]amino]-5,6,7,8-tetrahydroquinoline-3-carbonitrile], the 50% inhibitory concentration (IC50) in assay [1] was less than 100 nM. For the compound `COc1nc2c(c(C)c1C#N)CCC[C@@H]2Nc1ccc2[nH]nc(-c3cnco3)c2c1` (single isomer, unassigned) [Example 165, enantiomer 2, 2-Methoxy-4-methyl-8-[[3-(1,3-oxazol-5-yl)-1H-indazol-5-yl]amino]-5,6,7,8-tetrahydroquinoline-3-carbonitrile], the IC50 in assay [1] was less than 100 nM. Still for that read-out and setting: with `Cc1c(C#N)c(Cl)nc2c1CC[C@@H]2Oc1ccc2[nH]nc(-c3cnco3)c2c1` (single isomer, unassigned) [Example 166, enantiomer 2, 2-Chloro-4-methyl-7-[[3-(1,3-oxazol-5-yl)-1H-indazol-5-yl]oxy]-6,7-dihydro-5H-cyclopenta[b]pyridine-3-carbonitrile] the figure was less than 100 nM; with `N#Cc1c(F)cc2c(c1F)CC[C@@H]2Oc1ccc2[nH]nc(-c3cnco3)c2c1` (single isomer, unassigned) [Example 167, enantiomer 2, 4,6-Difluoro-1-[[3-(1,3-oxazol-5-yl)-1H-indazol-5-yl]oxy]-2,3-dihydro-1H-indene-5-carbonitrile], less than 100 nM; with `N#Cc1cc2c(nc1Cl)[C@@H](Oc1ccc3[nH]nc(-c4cnco4)c3c1)CC2` (single isomer, unassigned) [Example 171, enantiomer 2, 2-Chloro-7-[[3-(1,3-oxazol-5-yl)-1H-indazol-5-yl]oxy]-6,7-dihydro-5H-cyclopenta[b]pyridine-3-carbonitrile], less than 100 nM.
